Data from PubChem BioAssay (NCI).
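Interpolation was linear, between the two tested concentrations surrounding the appropriate level; five concentrations were tested over 48 hours in 96-well plates. At the GI50, growth is halved. At the TGI there is no net growth.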

Key:
Test in all cases: growth of human tumour cells (NCI), 48 h
[1] = system: OVCAR-5 ovarian
[2] = system: M19-MEL melanoma
[3] = system: TK-10 renal
[4] = system: NCI-H460 lung
[5] = system: OVCAR-4 ovarian
[6] = system: HT29 colon
[7] = system: LXFL 529 NSCLC
[8] = system: SR leukemia
[9] = system: UACC-62 melanoma
[10] = system: MDA-MB-231 breast

Row | Structure (SMILES) | TGI [1] | TGI [2] | TGI [3] | TGI [4] | TGI [5] | TGI [6] | TGI [7] | TGI [8] | TGI [9] | GI50 [1] | GI50 [2] | GI50 [3] | GI50 [4] | GI50 [5] | GI50 [6] | GI50 [7] | GI50 [8] | GI50 [9] | GI50 [10] | TGI [10]
1 | CN(C)/C=N/c1nc2c(ncn2C2OC(CO)C(O)C2O)c(=O)[nH]1 (configuration not stated) | > 100 µM | > 100 µM | > 100 µM | > 100 µM | > 100 µM | > 100 µM | > 100 µM | > 100 µM | > 100 µM | – | – | – | – | – | – | – | – | – | – | –
2 | COc1ccc2c3c([nH]c2c1[N+](=O)[O-])C(C)=NCC3 | > 100 µM | – | > 100 µM | > 100 µM | > 100 µM | > 100 µM | > 100 µM | > 100 µM | 62.3 µM | – | – | – | – | – | – | – | – | – | – | –
3 | Cn1c2c(c3ccccc31)C1CCCCCCC1C1C(=O)OC(=O)C21 (configuration not stated) | > 100 µM | > 100 µM | > 100 µM | > 100 µM | > 100 µM | > 100 µM | > 100 µM | 87.4 µM | > 100 µM | – | – | – | – | – | – | – | – | – | – | –
4 | CC1=NNC(=O)C2CCC(=O)N12 (configuration not stated) | – | > 100 µM | > 100 µM | > 100 µM | > 100 µM | – | > 100 µM | > 100 µM | – | – | – | – | – | – | – | – | – | – | – | –
5 | COC(=O)c1cc2c(s1)C(=O)c1ccccc1-2 | > 100 µM | > 100 µM | > 100 µM | > 100 µM | > 100 µM | – | > 100 µM | – | > 100 µM | – | – | – | – | – | – | – | – | – | – | –
6 | O=[N+]([O-])c1ccc(C2=Nn3cnnc3SC2)o1 | 36.8 µM | 13.8 µM | > 100 µM | 26.3 µM | – | 28.2 µM | 26.4 µM | 39.4 µM | – | – | – | – | – | – | – | – | – | – | – | –
7 | O=C(CCn1[nH]c(=O)c(Cl)c(Cl)c1=O)NO | > 100 µM | > 100 µM | > 100 µM | > 100 µM | > 100 µM | > 100 µM | > 100 µM | – | > 100 µM | – | – | – | – | – | – | – | – | – | – | –
8 | [N-]=[N+]=NC12CC3C4CC5CC3C(C1)C(C5)C4C2 | > 100 µM | > 100 µM | > 100 µM | > 100 µM | > 100 µM | > 100 µM | > 100 µM | > 100 µM | > 100 µM | – | – | – | – | – | – | – | – | – | – | –
9 | CC(C)(C)CC(C)(C)c1cc2c(O)c(c1)Cc1cc(C(C)(C)CC(C)(C)C)cc(c1O)Cc1cc(C(C)(C)CC(C)(C)C)cc(c1O)Cc1cc(C(C)(C)CC(C)(C)C)cc(c1O)C2 | > 100 µM | > 100 µM | > 100 µM | > 100 µM | > 100 µM | > 100 µM | > 100 µM | – | > 100 µM | – | – | – | – | – | – | – | – | – | – | –
10 | CN(C)c1ccc(C(C=C2c3ccccc3Sc3ccccc32)=C(C#N)C#N)cc1 | > 100 µM | > 100 µM | > 100 µM | > 100 µM | 50.1 µM | > 100 µM | > 100 µM | – | > 100 µM | – | – | – | – | – | – | – | – | – | – | –
11 | COc1ccc(C(=O)C(c2ccc(OC)cc2)C2(O)C(=O)Nc3ccc([N+](=O)[O-])cc32)cc1 (configuration not stated) | > 100 µM | > 100 µM | > 100 µM | > 100 µM | > 100 µM | > 100 µM | > 100 µM | > 100 µM | > 100 µM | – | – | – | – | – | – | – | – | – | – | –
12 | CCOc1ccccc1C=C1c2ccccc2C(=O)c2ccccc21 | > 100 µM | > 100 µM | 45.6 µM | 31.9 µM | > 100 µM | – | > 100 µM | – | > 100 µM | – | – | – | – | – | – | – | – | – | – | –
13 | CC(C)c1ccccc1NC(=O)CCc1n[nH]c(=S)o1 | > 100 µM | > 100 µM | > 100 µM | > 80.1 µM | > 100 µM | > 100 µM | > 100 µM | > 100 µM | > 100 µM | – | – | – | – | – | – | – | – | – | – | –
14 | N#Cc1nc(Nc2cccc3ccccc23)sc1N | > 100 µM | > 100 µM | 76.9 µM | > 100 µM | > 100 µM | > 100 µM | > 100 µM | 27.8 µM | 59 µM | – | – | – | – | – | – | – | – | – | – | –
15 | CC(C)N(C(=O)C12C3C4C5(C#N)C3C1(C#N)C5C42I)C(C)C (configuration not stated) | > 100 µM | > 100 µM | > 100 µM | > 100 µM | > 100 µM | > 100 µM | > 100 µM | 38.2 µM | > 100 µM | – | – | – | – | – | – | – | – | – | – | –
16 | O=C(/C=C/c1ccccc1O)c1ccccc1O | > 100 µM | > 100 µM | > 100 µM | > 100 µM | > 100 µM | > 100 µM | – | – | > 100 µM | – | – | – | – | – | – | – | – | – | – | –
17 | CC(=O)c1cccc(NC(=O)C(=O)NNc2n[nH]c(=S)n2N)c1 | 33.1 µM | 2.36 µM | 69.9 µM | 13.3 µM | 23.4 µM | 31.8 µM | 22.5 µM | 16.1 µM | 3.72 µM | – | – | – | – | – | – | – | – | – | – | –
18 | COc1cc(C(Cc2ccccc2)NC(C)=O)oc(=O)c1 (configuration not stated) | > 100 µM | > 100 µM | > 100 µM | > 100 µM | > 100 µM | > 100 µM | > 100 µM | – | > 100 µM | – | – | – | – | – | – | – | – | – | – | –
19 | CCC[CH2][Sn]1([CH2]CCC)[O]N=C(c2ccccc2)C(c2ccccc2)[O]1 (configuration not stated) | 9.31 µM | 3.13 µM | 4.09 µM | 15.8 µM | 4.18 µM | 5.4 µM | 1.23 µM | 3.59 µM | 2.81 µM | 2.84 µM | 1.56 µM | 1.9 µM | 4.46 µM | 2.13 µM | 2.46 µM | 0.316 µM | 0.574 µM | 1.42 µM | – | –
20 | CCCN=C(N)NC#N | > 100 µM | > 100 µM | > 100 µM | > 100 µM | > 100 µM | > 100 µM | > 100 µM | 77.2 µM | > 100 µM | – | – | – | – | – | – | – | – | – | – | –
21 | COc1cccc(/C=C/c2cc(OC)c(OC)c(OC)c2)c1 | > 100 µM | > 100 µM | – | > 100 µM | – | > 100 µM | > 100 µM | > 100 µM | > 100 µM | – | – | – | – | – | – | – | – | – | – | –
22 | [Cl][Hg][c]1cc(Br)cc(Br)c1 | 5.65 µM | – | 6.35 µM | 7.61 µM | 7.69 µM | 10.6 µM | – | 3.52 µM | 3.42 µM | 2.8 µM | – | 2.9 µM | 2.05 µM | 2.31 µM | 2.62 µM | – | 0.866 µM | 1.62 µM | 1.79 µM | 3.89 µM
23 | CCN(CC)c1ccc2c(c1)OC(N)=C(C#N)C2c1cc(OC)c2c(c1)OCO2 (configuration not stated) | 30.1 µM | – | 25.5 µM | 0.503 µM | > 48.6 µM | 0.309 µM | – | 1.98 µM | 13.5 µM | 0.0639 µM | – | 0.316 µM | 0.0336 µM | 0.0754 µM | 0.0317 µM | – | < 0.017 µM | < 0.0184 µM | 0.0557 µM | 2.73 µM
